Assay results taken from publication PMC12040169 (PLOS Biology, 2025).

Assay: in vitro
Conditions: human, hela cells, % viability

| Structure (SMILES) | viability at 28.5 h, 10 µM [%] |
| --- | --- |
| CC(C)CC(=O)N1CCN(Cc2nc3sc4c(c3c(=O)[nH]2)CCC4)CC1 [CBK305014] | 86.4 |
| CN(C)c1nc(-c2ccc3c(c2)CCCN3S(C)(=O)=O)cs1 [CBK305016] | 87.1 |
| COC(=O)c1ccc2c(=O)n(CC(C)O)c(SC)nc2c1 (centres unmarked) [CBK305018] | 88 |
| Cc1csc2nc(CN3CCN(C(=O)c4ccccc4)CC3)cc(=O)n12 [CBK305019] | 110 |
| CS(=O)(=O)N1CCCc2cc(-c3csc(N4CCOCC4)n3)ccc21 [CBK305022] | 84.8 |
| O=C(NCCCc1ccccc1)c1cccc(S(=O)(=O)N2CCCC2)c1 [CBK305024] | 96.1 |
| CCCC(=O)Nc1ccc(-c2csc(N3CCN(C)CC3)n2)cc1 [CBK305025] | 103 |
| CCCn1c(SCC(=O)NC2CCN(CC)CC2)nc2cc(Cl)ccc21 [CBK305027] | 104 |
| COc1ccccc1C(CNC(=O)Nc1cc(C)on1)N(C)C (centres unmarked) [CBK305028] | 97.8 |
| CC(Sc1nc2ccccc2c(=O)n1C)C(=O)N1CCOCC1 (centres unmarked) [CBK305031] | 88.5 |
| CC1CCCCN1S(=O)(=O)c1ccc(-n2ncc(Cl)c(Cl)c2=O)cc1 (centres unmarked) [CBK305035] | 90.6 |
| COC(=O)CNC(=O)c1cc(-c2ccc(C)s2)nc2c1cnn2C(C)C [CBK305040] | 99.5 |
| O=C(Cn1ccc(=O)[nH]c1=O)NCc1ccc(OCC(F)(F)F)cc1 [CBK305041] | 109 |
| N#Cc1ccnc(N2CCN(CC(=O)NCC(F)(F)F)CC2)c1 [CBK305042] | 95.1 |
| CC(=O)Nc1cccc(-n2nnnc2SCC(=O)N2CCNC2=O)c1 [CBK305043] | 88.5 |
| Cc1ccsc1C(=O)N1CCN(Cc2cc(=O)n3ccccc3n2)CC1 [CBK305044] | 102 |
| N#Cc1cccc(C(=O)NCCc2cn3c(n2)CCCC3)c1 [CBK305046] | 93.9 |
| COc1cccc(CC(=O)Nc2ncccc2O)c1 [CBK305047] | 95.3 |
| O=C(NCCN1CCc2ccccc2C1)C1CCCCC1 [CBK305049] | 115 |
| CCOC(=O)N1CCN(S(=O)(=O)c2ccc3c(c2)oc(=O)n3CC)CC1 [CBK305055] | 99 |
| Cn1ncc2c(=O)n(Cc3noc(-c4ccsc4)n3)cnc21 [CBK305056] | 99 |
| Cc1cc(NC(=O)NC2CC3(CCN(C)CC3)Oc3ccccc32)no1 (centres unmarked) [CBK305059] | 104 |
| CC(C)c1nc2c(n1C)CCN(Cc1cc(=O)n3ccccc3n1)C2 [CBK305061] | 92.6 |
| CCc1ccc2c(c1)C(CCNC(=O)CCc1ccsc1)C(=O)N2 (centres unmarked) [CBK305063] | 94.5 |

| Structure (SMILES) | viability at 28.5 h, 10 µM [%] |
| --- | --- |
| Cn1cc(C2CCCN2C(=O)Cc2csc3ccccc23)cn1 (centres unmarked) [CBK305066] | 102 |
| Cc1cc(OCC(=O)N2CCC(C(=O)Nc3ccccc3)CC2)no1 [CBK305067] | 99.5 |
| Cc1ccnc2nc(C(=O)OCC(=O)Nc3cccc(C#N)c3)nn12 [CBK305068] | 100 |
| CCN(CC)C(=O)CCc1nc2sc3c(c2c(=O)[nH]1)CCCC3 [CBK305069] | 87.6 |
| CCn1cnnc1SCC(=O)Nc1ccc(CN2CCOCC2)cc1 [CBK305072] | 97.4 |
| COc1cccc(C(=O)NCC(c2cccs2)N2CCOCC2)c1 (centres unmarked) [CBK305075] | 90.7 |
| CCOc1ncccc1NC(=O)N(CC1CCOC1)C1CC1 (centres unmarked) [CBK305077] | 94 |
| CS(=O)(=O)NC1CCN(CCc2ccc(F)c(F)c2)C1 (centres unmarked) [CBK305078] | 95.3 |
| CC(=O)Nc1cccc(C(=O)N2CCCC2c2ccncc2)c1 (centres unmarked) [CBK305080] | 96.5 |
| CCNC(=O)C1CCCN(Cc2ncc(C)c(OC)c2C)C1 (centres unmarked) [CBK305081] | 78 |
| CC(c1ccc(F)c(F)c1)N(C)C(=O)Cn1ncn(C)c1=O (centres unmarked) [CBK305083] | 80.2 |
| CCC(c1ccccc1)N1CCN(Cc2noc(C)n2)CC1 (centres unmarked) [CBK305084] | 90.3 |
| CCN(CC)C(=O)C1CCCN1C(=O)c1ccnc(N(C)C)c1 (centres unmarked) [CBK305086] | 99.7 |
| Cc1cccc(C2(CNC(=O)C3COCCO3)CCCCC2)c1 (centres unmarked) [CBK305087] | 109 |
| CC(NC(=O)N1CCSCC1)c1ccc2c(c1)CC(=O)N2 (centres unmarked) [CBK305093] | 96.7 |
| Cn1cc(CCC(=O)N2CCN(Cc3ccccn3)CC2)cn1 [CBK305094] | 113 |
| COc1ccc(CCN2CCCCC2Cn2cncn2)cc1 (centres unmarked) [CBK305095] | 108 |
| COc1ccccc1C(C)N(C)CCC(=O)Nc1cc(C)on1 (centres unmarked) [CBK305098] | 94.1 |
| Cn1nccc1CNCc1cc(Br)ccc1Cl [CBK305100] | 88.3 |
| CC(C)(C)OC(=O)N1CCCC(C(=O)NCc2ccco2)C1 (centres unmarked) [CBK305102] | 99.1 |
| CCc1nc(CNc2ccc(NC(C)=O)cc2Cl)cs1 [CBK305103] | 102 |
| CCc1ccc(CNC2CCN(Cc3cscn3)CC2)o1 [CBK305104] | 92.7 |
| Cc1n[nH]c(C)c1C1COCCN1C(=O)c1cccc(F)c1 (centres unmarked) [CBK305105] | 86.9 |
